Among the test systems are DU-145; EKVX; HCT-15; HL-60; HOP-62; HT-29; Hs-578T; MOLT-4; NCI-H522; NCI/ADR-RES; PC-3; RXF 393; SK-OV-3; SN12C; SNB-19; T47D; UACC-257; UO-31; HCC 2998; NCI-H226.
Holding throughout (assay): inhibition of tumour cell growth, NCI panel, 48 h

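Test compounds were applied to cells in 96-well plates for 48 hours at 5 doses. GI50 = concentration required for 50% inhibition of growth.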 Activity calls are given as the source filed them. Cut-off read from the data, not from the text of the source: active = GI50 up to about 1.1 µM and inactive = higher. Bounds are passed on as bounds.

We go through eleven compounds from ChEMBL document CHEMBL1201862, “PubChem BioAssay data set” (2004).

Regarding `C=C1c2ccccc2C(=O)c2c1c1c(C(=O)OC)c(O)ccc1n2Cc1ccccc1`, the GI50 in the experiment with DU-145 was 0.242 µM (active); with EKVX it was 0.9 µM (active); in the experiment on HCT-15 it was 0.232 µM; with HL-60, 0.265 µM (active); with HOP-62 it was 0.516 µM (active); with HT-29, 0.163 µM (active). Further, the GI50 in the experiment on Hs-578T was 0.297 µM (active); in the experiment on MOLT-4 it was 0.219 µM (active); with NCI-H522 it was 0.237 µM (active); in the experiment with NCI/ADR-RES, 0.235 µM (active); with PC-3, 0.437 µM (active); in the experiment with RXF 393, 0.267 µM (active). Further, the GI50 was 0.346 µM (active) in the experiment with SK-OV-3; 0.312 µM (active) with SN12C; 0.35 µM (active) in the experiment with SNB-19; 0.653 µM (active) with T47D; 1.71 µM (inactive) in the experiment on UACC-257; 0.512 µM (active) with UO-31.
As to `CCOC(=O)C1CCC(=O)N1C(=O)c1ccccc1Cl` (centres undefined), the GI50 is > 100 µM (inactive) in the experiment with DU-145; > 100 µM (inactive) with EKVX; > 100 µM (inactive) in the experiment on HCC 2998; above 100 µM in the experiment with HCT-15; > 100 µM (inactive) in the experiment with HL-60; > 100 µM (inactive) in the experiment with HOP-62. The GI50 with HT-29, with Hs-578T, with MOLT-4, in the experiment with NCI-H226, in the experiment with NCI-H522 and in the experiment on NCI/ADR-RES was > 100 µM (inactive) throughout. The GI50 in the experiment on PC-3, with RXF 393, in the experiment with SN12C, in the experiment on SNB-19, in the experiment with T47D and in the experiment with UACC-257 was > 100 µM (inactive) each time. The GI50 in the experiment on UO-31 was > 100 µM (inactive).
Turning to `CCCCCCCC/C=C\CCCCCCCC(=O)OC[C@]1(CO)CCC(=O)O1`, the GI50 in the experiment on DU-145 is > 100 µM (inactive); with EKVX, > 100 µM (inactive); with HCC 2998, > 100 µM (inactive); with HCT-15, above 100 µM; in the experiment with HOP-62 it was > 100 µM (inactive); with HT-29 it was > 100 µM (inactive). For the same compound, the GI50 with Hs-578T, in the experiment on MOLT-4, with NCI-H226, in the experiment with NCI-H522, in the experiment on NCI/ADR-RES and with PC-3 was > 100 µM (inactive) each time. Moreover, the GI50 in the experiment on RXF 393, in the experiment with SK-OV-3, in the experiment on SN12C, in the experiment with SNB-19, in the experiment on T47D and in the experiment on UACC-257 was > 100 µM (inactive) in each case. Moreover, the GI50 with UO-31 is > 100 µM (inactive).
For the compound `Cc1cc(S(=O)(=O)NC2=NCCCN2)c(S)cc1Cl`, the GI50 with DU-145 was 72.4 µM (inactive); in the experiment with EKVX, 38.9 µM (inactive); in the experiment on HCC 2998, 36.1 µM (inactive); with HCT-15 it was 43.6 µM; in the experiment with HL-60 it was 22.1 µM (inactive); in the experiment with HOP-62 it was 54.3 µM (inactive). For the same compound, the GI50 with HT-29 is 20.8 µM (inactive); in the experiment with Hs-578T, 24.5 µM (inactive); in the experiment on NCI-H226 it was 22.3 µM (inactive); in the experiment on NCI-H522, 22 µM (inactive); with NCI/ADR-RES, > 100 µM (inactive); in the experiment on PC-3, 58.5 µM (inactive). Moreover, the GI50 is 66.2 µM (inactive) with RXF 393; 36.6 µM (inactive) in the experiment with SK-OV-3; 49.4 µM (inactive) in the experiment with SN12C; 40.6 µM (inactive) with SNB-19; 25.2 µM (inactive) with T47D; 37.5 µM (inactive) with UACC-257. In the experiment with UO-31, the GI50 is 58.9 µM (inactive).
On to `CSc1cc(-c2cccs2)sc1-c1cc(SC)c(-c2sc(-c3sc(-c4cccs4)cc3SC)cc2SC)s1`, for which the GI50 with DU-145 is > 100 µM (inactive); in the experiment on EKVX it was > 100 µM (inactive); with HCC 2998, > 100 µM (inactive); in the experiment on HCT-15 it was above 100 µM; with HL-60, > 100 µM (inactive); in the experiment on HOP-62, > 100 µM (inactive). Also, the GI50 with HT-29, in the experiment with Hs-578T, in the experiment with MOLT-4, in the experiment on NCI-H522, in the experiment on NCI/ADR-RES and in the experiment on PC-3 was > 100 µM (inactive) each time. Also, the GI50 in the experiment on RXF 393, with SK-OV-3, with SN12C, in the experiment with SNB-19, in the experiment with T47D and in the experiment with UACC-257 was > 100 µM (inactive) in each case.
As for `O=C(NCCO)c1ccc(Cl)cc1`, the GI50 was > 100 µM (inactive) with DU-145; > 100 µM (inactive) with EKVX; > 100 µM (inactive) in the experiment with HCC 2998; above 100 µM in the experiment on HCT-15; > 100 µM (inactive) in the experiment with HOP-62; > 100 µM (inactive) in the experiment on HT-29. In addition, the GI50 in the experiment with Hs-578T, in the experiment with MOLT-4, in the experiment with NCI-H226, with NCI-H522, in the experiment with NCI/ADR-RES and with PC-3 was > 100 µM (inactive) in each case. In addition, the GI50 with RXF 393, with SN12C, in the experiment on SNB-19, with T47D, with UACC-257 and with UO-31 was > 100 µM (inactive) each time.
`Oc1ncc(Cl)c(O)n1`: the GI50 was > 100 µM (inactive) in the experiment on DU-145; > 100 µM (inactive) with EKVX; > 100 µM (inactive) in the experiment with HCC 2998; above 100 µM in the experiment with HCT-15; > 100 µM (inactive) with HL-60; > 100 µM (inactive) in the experiment on HT-29. The GI50 in the experiment on Hs-578T, in the experiment on MOLT-4, in the experiment on NCI-H226, with NCI-H522, with NCI/ADR-RES and in the experiment with PC-3 was > 100 µM (inactive) in each case. Moreover, the GI50 in the experiment with RXF 393, with SK-OV-3, with SN12C, in the experiment with SNB-19, with T47D and with UACC-257 was > 100 µM (inactive) in each case. For the same compound, the GI50 in the experiment on UO-31 was > 100 µM (inactive).
`O=c1cc(N2CCOCC2)oc2c(-c3ccccc3)cccc12` [LY-294002]: the GI50 with DU-145 was 12.4 µM (inactive); with EKVX it was 3.49 µM (inactive); with HCT-15 it was 7.91 µM; in the experiment with HL-60 it was 14.7 µM (inactive); with HOP-62 it was 4.59 µM (inactive); with HT-29, 6.25 µM (inactive). The GI50 with Hs-578T is 1.9 µM (inactive); with MOLT-4, 11.4 µM (inactive); in the experiment with NCI-H226, 3.93 µM (inactive); with NCI-H522, 2.21 µM (inactive); in the experiment with NCI/ADR-RES it was 4.76 µM (inactive); in the experiment with PC-3 it was 2.34 µM (inactive). Also, the GI50 with RXF 393 is 2.77 µM (inactive); with SK-OV-3 it was 14.2 µM (inactive); in the experiment with SN12C it was 5.36 µM (inactive); in the experiment with SNB-19, 14.6 µM (inactive); with T47D, 2.49 µM (inactive); with UACC-257 it was 14.5 µM (inactive). Besides, the GI50 in the experiment with UO-31 is 15.8 µM (inactive).
For the compound `O=[N+]([O-])c1ccc(S(=O)(=O)n2c3ccc(Br)cc3c3nc4ccccc4nc32)cc1`, the GI50 in the experiment on DU-145 was > 100 µM (inactive); in the experiment on HCC 2998, > 100 µM (inactive); in the experiment on HCT-15, above 100 µM; in the experiment with HOP-62, > 100 µM (inactive); in the experiment on HT-29 it was > 100 µM (inactive); with Hs-578T it was 53.6 µM (inactive). Also, the GI50 in the experiment with MOLT-4 is > 100 µM (inactive); in the experiment on NCI-H226, 24 µM (inactive); in the experiment on NCI-H522 it was > 100 µM (inactive); with NCI/ADR-RES it was > 100 µM (inactive); in the experiment with PC-3 it was > 100 µM (inactive); in the experiment on RXF 393 it was > 100 µM (inactive). For the same compound, the GI50 with SN12C, with SNB-19, with T47D, in the experiment with UACC-257 and with UO-31 was > 100 µM (inactive) throughout.
Turning to `CC1=C(C(N)=O)C(c2ccncc2)C(C#N)=C2SCC(=O)N12` (centres undefined), the GI50 with DU-145 was > 100 µM (inactive); in the experiment on EKVX, > 100 µM (inactive); in the experiment with HCT-15, above 100 µM; with HL-60, > 100 µM (inactive); in the experiment with HOP-62, > 100 µM (inactive); in the experiment with HT-29, > 100 µM (inactive). The GI50 in the experiment with Hs-578T, in the experiment with MOLT-4, in the experiment with NCI-H226, in the experiment with NCI-H522, in the experiment on NCI/ADR-RES and with PC-3 was > 100 µM (inactive) each time. For the same compound, the GI50 in the experiment with RXF 393, in the experiment with SK-OV-3, in the experiment with SN12C, in the experiment on SNB-19, in the experiment with T47D and with UACC-257 was > 100 µM (inactive) each time. The GI50 in the experiment on UO-31 was > 100 µM (inactive).
As for `CCOC(=O)c1c[nH]cc1-c1cn(S(=O)(=O)c2ccccc2)cc1C`, the GI50 in the experiment with DU-145 was 50.7 µM (inactive); in the experiment on EKVX, 14.6 µM (inactive); with HCC 2998, 17.5 µM (inactive); in the experiment on HCT-15 it was 22.9 µM; in the experiment on HL-60, 26.2 µM (inactive); in the experiment on HOP-62, 31.5 µM (inactive). For the same compound, the GI50 with HT-29 was 21.2 µM (inactive); in the experiment with Hs-578T it was 11.9 µM (inactive); in the experiment with MOLT-4, 20.4 µM (inactive); in the experiment with NCI-H522 it was 15.6 µM (inactive); in the experiment on NCI/ADR-RES it was 22.2 µM (inactive); with PC-3 it was 18.6 µM (inactive). Further, the GI50 was 47.1 µM (inactive) in the experiment with RXF 393; 25.9 µM (inactive) in the experiment on SK-OV-3; 25.2 µM (inactive) in the experiment with SN12C; 31.8 µM (inactive) in the experiment with SNB-19; 18.2 µM (inactive) in the experiment on T47D; 17.1 µM (inactive) in the experiment on UACC-257. Besides, the GI50 with UO-31 is 27.5 µM (inactive).
